Patent US11731941B2 (Exelixis, Inc., priority 2017, dated 2023)
Values after ≈ are worked out from the molar mass of the structure shown. Structures can show the parent of a compound that is named as a salt. Each block holds one molecule with its values, some of them ahead of it.

Key:
[1] = both forms of Compound 1 (S)-malate; comparison value, source not stated; cited from earlier work
[2] = initial development experiments (BCS classification, solubility, permeability); format: physicochemical; conditions: free base
[3] = humidity stress at 40° C./75% relative humidity; format: physicochemical; conditions: about 7 days
[4] = aqueous equilibrium solubility by HPLC; format: physicochemical; conditions: for pH of the solubility solution: checked with pH paper; for solubility compared to malate salt of Compound 1: comparison in words; for aqueous solubility: distilled water, ambient temperature (about 25° C.), 24 hours, HPLC
Method: The HPLC method used to determine aqueous equilibrium solubility is outlined in Table 32.
HPLC solubility determination about 5 mg of each salt was added to a vial with distilled water (1 mL). These were stirred at ambient temperature (about 25° C.) for 24 hours. The solution was isolated by filtration through a 0.2 μm PTFE filter and was analyzed by HPLC for concentration. The pH of the solutions was checked with pH paper.

[5] = Dynamic Vapor Sorption (DVS) hygroscopicity; format: physicochemical; conditions: for XRPD analysis of the post DVS sample: physical form after DVS cycle; for hygroscopicity, European Pharmacopoeia classification: weight increase at 80% RH (25° C.)
Method: As used herein “the European Pharmacopoeia classification” is a system whereby a chemical Compound 1s classified based on hygroscopicity. The classification is determined according to Table 2: [table] Dynamic Vapor Sorption (DVS) was performed using a Hiden Analytical Instruments IGAsorp Vapor Sorption Balance. Approximately 30 mg of sample was placed into a wire mesh vapor sorption balance pan, loaded into the IGAsorp vapor sorption balance, and held at 25° C.±0.1° C. The sample was subjected to a step profile from 0 to 90% RH at 10% increments, followed by desorption from […] to 0% RH at 10% increments. The equilibrium criterion was set to 99.0% step completion within a minimum of 60 minutes and a maximum of 5 hours for each increment. The weight change during the sorption cycle was monitored, allowing for the hygroscopic nature of the sample to be determined. The data collection interval was in seconds.

[6] = listed as Compound 1 isethionate monohydrate

Structure (SMILES): COc1cc2nccc(Oc3ccc(NC(=O)C4(C(=O)Nc5ccc(F)cc5)CC4)cc3)c2cc1OC [Compound 1 (S)-malate, S-malate salt of N-{4-[(6,7-dimethoxyquinolin-4-yl)oxy]phenyl}-N′-(4-fluorophenyl) cyclopropane-1,1-dicarboxamide]
hygroscopicity weight gain of comparator [1]: about 0.4 % w/w

Structure (SMILES): COc1cc2nccc(Oc3ccc(NC(=O)C4(C(=O)Nc5ccc(F)cc5)CC4)cc3)c2cc1OC [Compound 1, N-{4-[(6,7-dimethoxyquinolin-4-yl)oxy]phenyl}-N′-(4-fluorophenyl) cyclopropane-1,1-dicarboxamide]
BCS class [2]: BCS class II
solubility ([2]; in water): low solubility
% Weight Change [3]: −0.94%
XRPD after humidity stressing [3]: Form 1

Structure (SMILES): COc1cc2nccc(Oc3ccc(NC(=O)C4(C(=O)Nc5ccc(F)cc5)CC4)cc3)c2cc1OC [Form 3, N-{4-[(6,7-dimethoxyquinolin-4-yl)oxy]phenyl}-N′-(4-fluorophenyl) cyclopropane-1,1-dicarboxamide]
XRPD after humidity stressing [3]: no form change
weight loss after humidity stressing [3]: 43.17%

Structure (SMILES): COc1cc2nccc(Oc3ccc(NC(=O)C4(C(=O)Nc5ccc(F)cc5)CC4)cc3)c2cc1OC [Form 14, N-{4-[(6,7-dimethoxyquinolin-4-yl)oxy]phenyl}-N′-(4-fluorophenyl) cyclopropane-1,1-dicarboxamide]
pH of the solubility solution ([4]; listed as Compound 1 pyruvate): about 3
solubility compared to malate salt of Compound 1 ([4]; listed as Compound 1 pyruvate): higher solubility
aqueous solubility ([4]; listed as Compound 1 pyruvate): about 0.133 mg/mL
total weight gain between 0% RH and 80% RH ([5]; DVS, 25° C., listed as Compound 1 pyruvate): 0.10 % w/w
XRPD analysis of the post DVS sample [5]: remained unchanged
hygroscopicity, European Pharmacopoeia classification ([5]; listed as Compound 1 pyruvate): non-hygroscopic

Next, values leading:

pH of the solubility solution ([4]; listed as Compound 1 glutarate): about 3
aqueous solubility ([4]; listed as Compound 1 glutarate): 16 µg/mL (≈ 31.9 µM)
total weight gain between 0% RH and 80% RH ([5]; DVS, 25° C., listed as Compound 1 glutarate): 0.08 % w/w
hygroscopicity, European Pharmacopoeia classification ([5]; listed as Compound 1 glutarate): non-hygroscopic
Structure (SMILES): COc1cc2nccc(Oc3ccc(NC(=O)C4(C(=O)Nc5ccc(F)cc5)CC4)cc3)c2cc1OC [Form 20, N-{4-[(6,7-dimethoxyquinolin-4-yl)oxy]phenyl}-N′-(4-fluorophenyl) cyclopropane-1,1-dicarboxamide]

pH of the solubility solution [4, 6]: about 2
solubility compared to malate salt of Compound 1 [4, 6]: much higher solubility
aqueous solubility [4, 6]: 195 µg/mL (≈ 389 µM)
plateau of water content between 10-50% RH ([5]; DVS isotherm, 1 mol. eq.): about 3.0±0.1 % w/w
total weight gain between 20% RH and 80% RH ([5]; DVS, 25° C.): about 2.4 % w/w
XRPD analysis of the post DVS sample [5]: remained unchanged
hygroscopicity, European Pharmacopoeia classification [5, 6]: hygroscopic
Structure (SMILES): COc1cc2nccc(Oc3ccc(NC(=O)C4(C(=O)Nc5ccc(F)cc5)CC4)cc3)c2cc1OC [Form 27, N-{4-[(6,7-dimethoxyquinolin-4-yl)oxy]phenyl}-N′-(4-fluorophenyl) cyclopropane-1,1-dicarboxamide]
